Data reported in publication doi:10.1101/2024.08.19.608619, “Discovery of potent SARS-CoV-2 nsp3 macrodomain inhibitors uncovers lack of translation to cellular antiviral response” (bioRxiv, 2024).
Where two headings read alike, the source gives them in different places.

Legend:
Assay in all cases: biochemical
Parameters in all cases: In vitro kinase panel profiling, per cent remaining kinase activity at 10 uM
[1] = target: T1, MSK2(h) (Homo sapiens, UniProt O75676); settings: atp_concentration=45, read-out: % of control remaining
T1 construct: gene RPS6KA4
T1 sequence (O75676 whole entry): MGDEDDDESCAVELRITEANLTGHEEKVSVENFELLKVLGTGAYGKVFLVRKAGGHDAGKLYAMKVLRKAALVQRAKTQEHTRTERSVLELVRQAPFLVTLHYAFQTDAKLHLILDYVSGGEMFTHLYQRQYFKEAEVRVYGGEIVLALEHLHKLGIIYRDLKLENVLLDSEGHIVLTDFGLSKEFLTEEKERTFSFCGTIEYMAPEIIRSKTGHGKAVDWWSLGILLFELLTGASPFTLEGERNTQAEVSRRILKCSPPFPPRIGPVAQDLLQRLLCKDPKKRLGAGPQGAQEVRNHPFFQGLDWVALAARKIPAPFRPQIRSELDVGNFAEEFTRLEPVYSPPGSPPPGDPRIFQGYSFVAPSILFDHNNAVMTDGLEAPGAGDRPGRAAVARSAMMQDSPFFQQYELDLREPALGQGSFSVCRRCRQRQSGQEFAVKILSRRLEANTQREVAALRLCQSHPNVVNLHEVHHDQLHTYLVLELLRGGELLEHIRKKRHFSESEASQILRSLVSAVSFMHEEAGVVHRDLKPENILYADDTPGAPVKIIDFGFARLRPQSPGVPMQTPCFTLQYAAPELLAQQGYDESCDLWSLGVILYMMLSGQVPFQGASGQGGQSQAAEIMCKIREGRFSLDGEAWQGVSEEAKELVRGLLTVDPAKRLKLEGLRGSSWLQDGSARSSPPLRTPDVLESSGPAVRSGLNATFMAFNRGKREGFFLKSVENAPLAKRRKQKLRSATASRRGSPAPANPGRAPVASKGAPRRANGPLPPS
Excerpt: (§1) We derisk potential for off-target activity by profiling the compound in a CEREP panel, a standard secondary pharmacology assessment, as well as a kinase panel to derisk a potential hinge-binding motif in our leads, and a PARP panel to derisk activity against human […]. Reassuringly, the compounds are selective, with the only off-targets being moderate human CHRM2 and KOR receptors activity associated with ASAP-0011198.

[2] = target: T2, ROCK-I(h) (Homo sapiens, UniProt Q13464); settings: atp_concentration=70, read-out: % of control remaining
T2 construct: gene ROCK1
T2 sequence (Q13464 whole entry): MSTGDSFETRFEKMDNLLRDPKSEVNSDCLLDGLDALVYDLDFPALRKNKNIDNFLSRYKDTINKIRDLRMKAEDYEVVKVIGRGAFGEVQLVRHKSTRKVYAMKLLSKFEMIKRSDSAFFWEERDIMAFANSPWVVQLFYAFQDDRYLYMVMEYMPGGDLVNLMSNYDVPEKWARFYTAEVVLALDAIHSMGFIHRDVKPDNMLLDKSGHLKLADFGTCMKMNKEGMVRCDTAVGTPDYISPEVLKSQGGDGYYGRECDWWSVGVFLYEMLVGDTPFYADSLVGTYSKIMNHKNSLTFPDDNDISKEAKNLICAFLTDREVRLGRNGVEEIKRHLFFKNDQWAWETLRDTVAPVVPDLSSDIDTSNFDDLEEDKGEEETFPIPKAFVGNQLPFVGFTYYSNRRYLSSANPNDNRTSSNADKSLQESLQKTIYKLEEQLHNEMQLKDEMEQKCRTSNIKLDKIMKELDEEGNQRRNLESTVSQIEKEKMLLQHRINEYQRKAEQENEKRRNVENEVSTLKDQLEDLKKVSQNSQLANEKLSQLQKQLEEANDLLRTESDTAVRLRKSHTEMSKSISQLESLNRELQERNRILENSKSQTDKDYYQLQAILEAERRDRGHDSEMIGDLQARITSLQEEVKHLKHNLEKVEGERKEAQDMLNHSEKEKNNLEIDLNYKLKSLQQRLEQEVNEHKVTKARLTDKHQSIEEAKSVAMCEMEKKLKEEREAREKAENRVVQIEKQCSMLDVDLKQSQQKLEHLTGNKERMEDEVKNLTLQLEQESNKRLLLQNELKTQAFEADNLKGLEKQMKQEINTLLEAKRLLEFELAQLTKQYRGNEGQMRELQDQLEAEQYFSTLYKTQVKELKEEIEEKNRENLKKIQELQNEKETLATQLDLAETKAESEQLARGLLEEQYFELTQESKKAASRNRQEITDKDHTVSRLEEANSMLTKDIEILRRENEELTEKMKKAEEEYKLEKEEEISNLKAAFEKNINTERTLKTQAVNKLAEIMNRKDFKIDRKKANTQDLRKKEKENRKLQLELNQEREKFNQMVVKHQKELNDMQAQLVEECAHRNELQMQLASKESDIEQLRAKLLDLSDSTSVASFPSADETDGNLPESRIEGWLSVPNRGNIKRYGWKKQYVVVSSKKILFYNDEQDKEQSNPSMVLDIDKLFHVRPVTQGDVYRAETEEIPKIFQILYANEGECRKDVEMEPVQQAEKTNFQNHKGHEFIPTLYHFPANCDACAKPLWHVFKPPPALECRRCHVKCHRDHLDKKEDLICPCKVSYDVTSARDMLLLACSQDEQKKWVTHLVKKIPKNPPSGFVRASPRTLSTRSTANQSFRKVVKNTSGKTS
Excerpt: as §1

[3] = target: T3, PI3 Kinase (p120γ)(h) (Homo sapiens, UniProt P48736); settings: atp_concentration=100, read-out: % of control remaining
T3 construct: gene PIK3CG
T3 sequence (P48736 whole entry): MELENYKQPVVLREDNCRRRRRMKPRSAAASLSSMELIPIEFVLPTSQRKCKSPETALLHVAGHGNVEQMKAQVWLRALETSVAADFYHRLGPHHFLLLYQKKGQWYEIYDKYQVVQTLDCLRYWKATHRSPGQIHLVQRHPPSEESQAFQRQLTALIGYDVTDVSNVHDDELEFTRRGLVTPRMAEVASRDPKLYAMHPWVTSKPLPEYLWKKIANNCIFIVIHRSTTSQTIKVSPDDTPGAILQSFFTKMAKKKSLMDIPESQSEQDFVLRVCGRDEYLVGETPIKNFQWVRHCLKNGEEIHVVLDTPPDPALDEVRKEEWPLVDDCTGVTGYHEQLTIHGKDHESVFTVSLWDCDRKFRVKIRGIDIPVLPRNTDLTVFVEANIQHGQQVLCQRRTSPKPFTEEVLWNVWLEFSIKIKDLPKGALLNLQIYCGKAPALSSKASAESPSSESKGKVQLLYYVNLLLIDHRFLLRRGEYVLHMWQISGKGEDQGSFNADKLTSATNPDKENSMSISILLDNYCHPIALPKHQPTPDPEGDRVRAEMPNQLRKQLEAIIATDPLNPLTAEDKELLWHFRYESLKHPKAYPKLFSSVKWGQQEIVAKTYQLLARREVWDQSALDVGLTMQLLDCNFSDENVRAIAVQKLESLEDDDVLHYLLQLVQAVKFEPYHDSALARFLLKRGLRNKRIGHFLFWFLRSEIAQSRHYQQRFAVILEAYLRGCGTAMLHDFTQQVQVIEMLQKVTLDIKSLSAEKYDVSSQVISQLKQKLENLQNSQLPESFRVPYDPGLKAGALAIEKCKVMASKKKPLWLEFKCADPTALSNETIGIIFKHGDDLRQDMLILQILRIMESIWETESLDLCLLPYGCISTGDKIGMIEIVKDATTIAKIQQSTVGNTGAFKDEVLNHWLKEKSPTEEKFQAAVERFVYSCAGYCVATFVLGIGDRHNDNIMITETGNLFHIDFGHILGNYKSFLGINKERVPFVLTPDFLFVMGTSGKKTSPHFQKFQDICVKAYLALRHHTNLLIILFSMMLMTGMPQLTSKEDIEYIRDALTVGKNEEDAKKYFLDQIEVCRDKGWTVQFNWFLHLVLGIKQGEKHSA
Excerpt: as §1

[4] = target: T4, PI3 Kinase (p110α/p85α)(h) (Homo sapiens, UniProt P42336); settings: atp_concentration=200, read-out: % of control remaining
T4 construct: gene PIK3CA
Excerpt: as §1

[5] = target: T5, TAK1(h) (Homo sapiens, UniProt O43318); settings: atp_concentration=45, read-out: % of control remaining
T5 construct: gene MAP3K7
T5 sequence (O43318 1-606): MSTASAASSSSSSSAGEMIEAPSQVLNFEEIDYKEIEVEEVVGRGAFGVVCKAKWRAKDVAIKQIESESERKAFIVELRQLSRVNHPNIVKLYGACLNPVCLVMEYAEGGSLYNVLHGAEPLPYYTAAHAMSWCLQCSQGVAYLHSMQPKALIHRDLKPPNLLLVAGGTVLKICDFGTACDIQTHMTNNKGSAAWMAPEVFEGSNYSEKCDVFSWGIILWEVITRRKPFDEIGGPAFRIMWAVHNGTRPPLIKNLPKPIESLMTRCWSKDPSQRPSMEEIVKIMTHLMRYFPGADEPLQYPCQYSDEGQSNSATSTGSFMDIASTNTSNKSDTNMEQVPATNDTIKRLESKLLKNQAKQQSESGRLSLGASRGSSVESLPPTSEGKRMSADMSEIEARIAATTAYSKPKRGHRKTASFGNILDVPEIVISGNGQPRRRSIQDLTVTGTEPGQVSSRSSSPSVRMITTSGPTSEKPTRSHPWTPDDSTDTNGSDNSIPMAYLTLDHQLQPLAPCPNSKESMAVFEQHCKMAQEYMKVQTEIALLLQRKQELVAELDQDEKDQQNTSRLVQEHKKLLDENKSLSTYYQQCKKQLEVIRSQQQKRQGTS
Excerpt: as §1

[6] = target: T6, Rse(h) (Homo sapiens, UniProt Q06418); settings: atp_concentration=45, read-out: % of control remaining
T6 construct: gene TYRO3
T6 sequence (Q06418 1-890): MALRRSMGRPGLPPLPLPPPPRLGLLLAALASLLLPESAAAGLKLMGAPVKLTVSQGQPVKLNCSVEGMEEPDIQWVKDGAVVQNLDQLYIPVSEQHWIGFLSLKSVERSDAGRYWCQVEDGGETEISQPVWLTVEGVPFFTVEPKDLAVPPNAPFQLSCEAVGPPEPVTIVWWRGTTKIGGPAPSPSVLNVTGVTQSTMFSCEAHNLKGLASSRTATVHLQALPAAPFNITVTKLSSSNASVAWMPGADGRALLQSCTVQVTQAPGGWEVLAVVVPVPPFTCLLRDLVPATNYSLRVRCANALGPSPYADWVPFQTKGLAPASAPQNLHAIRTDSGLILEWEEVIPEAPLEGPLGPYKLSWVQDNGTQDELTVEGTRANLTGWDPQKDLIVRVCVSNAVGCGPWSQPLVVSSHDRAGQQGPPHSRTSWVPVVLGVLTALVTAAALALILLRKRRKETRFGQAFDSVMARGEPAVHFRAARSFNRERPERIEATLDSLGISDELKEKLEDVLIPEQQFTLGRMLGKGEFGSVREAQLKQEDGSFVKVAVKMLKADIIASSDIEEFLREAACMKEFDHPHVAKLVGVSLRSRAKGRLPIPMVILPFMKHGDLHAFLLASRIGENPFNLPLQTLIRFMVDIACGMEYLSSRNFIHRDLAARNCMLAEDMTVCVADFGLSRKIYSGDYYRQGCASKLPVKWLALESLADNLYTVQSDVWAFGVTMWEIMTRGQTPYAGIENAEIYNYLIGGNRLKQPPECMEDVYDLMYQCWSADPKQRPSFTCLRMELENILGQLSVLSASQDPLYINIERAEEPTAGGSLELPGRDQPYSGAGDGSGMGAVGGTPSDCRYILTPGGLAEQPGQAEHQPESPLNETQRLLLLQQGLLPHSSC
Excerpt: as §1

[7] = target: T7, p70S6K(h) (Homo sapiens, UniProt P23443); settings: atp_concentration=15, read-out: % of control remaining
T7 construct: gene RPS6KB1
Excerpt: as §1

[8] = target: T8, Pim-1(h) (Homo sapiens, UniProt P11309); settings: atp_concentration=90, read-out: % of control remaining
T8 construct: gene PIM1
T8 sequence (P11309 whole entry): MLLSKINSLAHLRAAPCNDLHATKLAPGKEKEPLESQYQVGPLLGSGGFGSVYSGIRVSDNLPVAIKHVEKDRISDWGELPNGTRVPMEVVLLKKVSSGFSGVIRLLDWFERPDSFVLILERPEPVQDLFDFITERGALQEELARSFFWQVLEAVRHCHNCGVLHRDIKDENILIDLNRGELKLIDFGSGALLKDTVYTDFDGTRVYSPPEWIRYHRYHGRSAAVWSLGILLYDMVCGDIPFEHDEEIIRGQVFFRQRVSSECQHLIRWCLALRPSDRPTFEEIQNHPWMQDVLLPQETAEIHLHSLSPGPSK
Excerpt: as §1

[9] = target: T9, GSK3β(h) (Homo sapiens, UniProt P49841); settings: atp_concentration=15, read-out: % of control remaining
T9 construct: gene GSK3B
T9 sequence (P49841 whole entry): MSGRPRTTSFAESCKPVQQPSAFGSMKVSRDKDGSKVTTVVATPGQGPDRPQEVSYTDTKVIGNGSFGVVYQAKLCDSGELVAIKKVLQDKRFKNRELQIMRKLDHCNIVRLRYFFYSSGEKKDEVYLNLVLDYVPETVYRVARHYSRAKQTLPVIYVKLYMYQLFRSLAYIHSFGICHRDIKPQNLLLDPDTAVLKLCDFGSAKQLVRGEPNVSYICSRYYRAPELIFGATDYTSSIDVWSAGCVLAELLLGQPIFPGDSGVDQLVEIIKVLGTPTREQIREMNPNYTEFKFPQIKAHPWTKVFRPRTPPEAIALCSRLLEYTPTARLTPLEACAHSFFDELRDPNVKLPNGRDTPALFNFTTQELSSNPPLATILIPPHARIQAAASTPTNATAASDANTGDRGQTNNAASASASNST
Excerpt: as §1

[10] = target: T10, MEK1(h) (Homo sapiens, UniProt Q02750); settings: atp_concentration=10, read-out: % of control remaining
T10 construct: gene MAP2K1
T10 sequence (Q02750 whole entry): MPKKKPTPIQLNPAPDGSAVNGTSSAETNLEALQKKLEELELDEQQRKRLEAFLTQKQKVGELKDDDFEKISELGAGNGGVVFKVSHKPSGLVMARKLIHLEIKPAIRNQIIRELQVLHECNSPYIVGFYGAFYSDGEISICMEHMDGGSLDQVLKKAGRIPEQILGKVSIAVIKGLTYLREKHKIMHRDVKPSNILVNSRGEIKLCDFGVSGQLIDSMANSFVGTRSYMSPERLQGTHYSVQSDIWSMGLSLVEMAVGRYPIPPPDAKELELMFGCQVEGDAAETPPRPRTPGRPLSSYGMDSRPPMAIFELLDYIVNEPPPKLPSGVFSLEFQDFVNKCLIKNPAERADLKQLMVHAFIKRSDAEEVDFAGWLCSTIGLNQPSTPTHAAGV
Excerpt: as §1

[11] = target: Fyn(h) (Homo sapiens, UniProt P06241); settings: atp_concentration=70, read-out: % of control remaining
Sequence of Fyn(h) (P06241 whole entry): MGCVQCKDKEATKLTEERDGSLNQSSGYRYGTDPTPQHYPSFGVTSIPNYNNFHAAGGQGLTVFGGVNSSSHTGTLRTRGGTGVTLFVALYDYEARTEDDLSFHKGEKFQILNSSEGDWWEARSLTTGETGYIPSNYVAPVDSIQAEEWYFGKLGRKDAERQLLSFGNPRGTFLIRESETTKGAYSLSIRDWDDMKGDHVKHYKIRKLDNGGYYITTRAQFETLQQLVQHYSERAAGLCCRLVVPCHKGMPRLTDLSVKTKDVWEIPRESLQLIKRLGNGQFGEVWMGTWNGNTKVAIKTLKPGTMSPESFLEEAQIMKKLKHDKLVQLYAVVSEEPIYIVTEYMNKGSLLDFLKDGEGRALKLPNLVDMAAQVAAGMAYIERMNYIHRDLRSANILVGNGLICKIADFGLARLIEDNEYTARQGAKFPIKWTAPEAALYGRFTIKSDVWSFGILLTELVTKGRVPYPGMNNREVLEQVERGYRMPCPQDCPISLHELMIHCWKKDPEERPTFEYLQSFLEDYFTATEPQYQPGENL
Excerpt: as §1

Work on `CNCc1cc(-c2cc3c(N[C@@H](c4ccc5c(c4)S(=O)(=O)CCC5)C(C)C)ncnc3[nH]2)co1` [ASAP-0011176] yielded a remaining activity at 10 µM ([1]; batch_name=ASAP-0011176-002) of 91%, a remaining activity at 10 µM ([2]; batch_name=ASAP-0011176-002) of 102% and a remaining activity at 10 µM ([3]; batch_name=ASAP-0011176-002) of 96%. For the same compound, the remaining activity at 10 µM ([4]; batch_name=ASAP-0011176-002) was 99%, the remaining activity at 10 µM ([5]; batch_name=ASAP-0011176-002) was 90% and the remaining activity at 10 µM ([6]; batch_name=ASAP-0011176-002) was 81%. It also gave a remaining activity at 10 µM ([7]; batch_name=ASAP-0011176-002) of 110%, a remaining activity at 10 µM ([8]; batch_name=ASAP-0011176-002) of 93% and a remaining activity at 10 µM ([9]; batch_name=ASAP-0011176-002) of 92%. For the same compound, the remaining activity at 10 µM ([10]; batch_name=ASAP-0011176-002) was 97% and the remaining activity at 10 µM ([11]; batch_name=ASAP-0011176-002) was 64%.
`CC(C)C(Nc1ncnc2[nH]c(C(=O)NC3CCN(C)C3)cc12)c1ccc2c(c1)S(=O)(=O)CCC2` (stereo not drawn) [ASAP-0011198] showed a remaining activity at 10 µM ([1]; batch_name=ASAP-0011198-002) of 93%, a remaining activity at 10 µM ([2]; batch_name=ASAP-0011198-002) of 98% and a remaining activity at 10 µM ([3]; batch_name=ASAP-0011198-002) of 97%. The remaining activity at 10 µM ([4]; batch_name=ASAP-0011198-002) was 104%, the remaining activity at 10 µM ([5]; batch_name=ASAP-0011198-002) was 100% and the remaining activity at 10 µM ([6]; batch_name=ASAP-0011198-002) was 107%. It also gave a remaining activity at 10 µM ([7]; batch_name=ASAP-0011198-002) of 104%, a remaining activity at 10 µM ([8]; batch_name=ASAP-0011198-002) of 97% and a remaining activity at 10 µM ([9]; batch_name=ASAP-0011198-002) of 93%. It also gave a remaining activity at 10 µM ([10]; batch_name=ASAP-0011198-002) of 107% and a remaining activity at 10 µM ([11]; batch_name=ASAP-0011198-002) of 107%.
In the case of `Cn1ncc(-c2cc3c(N[C@@H](c4ccc5c(n4)OCCO5)C(C)(C)C)ncnc3[nH]2)c1C#N` [ASAP-0011221], the remaining activity at 10 µM ([1]; batch_name=ASAP-0011221-002) was 122%, the remaining activity at 10 µM ([2]; batch_name=ASAP-0011221-002) was 129% and the remaining activity at 10 µM ([3]; batch_name=ASAP-0011221-002) was 88%. The remaining activity at 10 µM ([4]; batch_name=ASAP-0011221-002) was 75%, the remaining activity at 10 µM ([5]; batch_name=ASAP-0011221-002) was 95% and the remaining activity at 10 µM ([6]; batch_name=ASAP-0011221-002) was 110%. It also gave a remaining activity at 10 µM ([7]; batch_name=ASAP-0011221-002) of 108%, a remaining activity at 10 µM ([8]; batch_name=ASAP-0011221-002) of 107% and a remaining activity at 10 µM ([9]; batch_name=ASAP-0011221-002) of 98%. The remaining activity at 10 µM ([10]; batch_name=ASAP-0011221-002) was 98% and the remaining activity at 10 µM ([11]; batch_name=ASAP-0011221-002) was 82%.
`Cc1nn(C)cc1-c1cc2c(NC(c3ccc4c(c3)S(=O)(=O)CCC4)C(C)C)ncnc2[nH]1` (stereo not drawn) [ASAP-0011446] showed a remaining activity at 10 µM ([1]; batch_name=ASAP-0011446-002) of 105%, a remaining activity at 10 µM ([2]; batch_name=ASAP-0011446-002) of 103% and a remaining activity at 10 µM ([3]; batch_name=ASAP-0011446-002) of 96%. The remaining activity at 10 µM ([4]; batch_name=ASAP-0011446-002) was 102%, the remaining activity at 10 µM ([5]; batch_name=ASAP-0011446-002) was 100% and the remaining activity at 10 µM ([6]; batch_name=ASAP-0011446-002) was 96%. It also gave a remaining activity at 10 µM ([7]; batch_name=ASAP-0011446-002) of 108%, a remaining activity at 10 µM ([8]; batch_name=ASAP-0011446-002) of 95% and a remaining activity at 10 µM ([9]; batch_name=ASAP-0011446-002) of 96%. It also gave a remaining activity at 10 µM ([10]; batch_name=ASAP-0011446-002) of 99% and a remaining activity at 10 µM ([11]; batch_name=ASAP-0011446-002) of 32%.
For `C[C@H](C(=O)O)[C@@H](NC(=O)c1ncnc2[nH]ccc12)c1ccc(Br)cc1` [ASAP-0014722], the remaining activity at 10 µM ([1]; batch_name=ASAP-0014722-002) was 90%, the remaining activity at 10 µM ([2]; batch_name=ASAP-0014722-002) was 90% and the remaining activity at 10 µM ([3]; batch_name=ASAP-0014722-002) was 97%. It also gave a remaining activity at 10 µM ([4]; batch_name=ASAP-0014722-002) of 100%, a remaining activity at 10 µM ([5]; batch_name=ASAP-0014722-002) of 95% and a remaining activity at 10 µM ([6]; batch_name=ASAP-0014722-002) of 87%. For the same compound, the remaining activity at 10 µM ([7]; batch_name=ASAP-0014722-002) was 97%, the remaining activity at 10 µM ([8]; batch_name=ASAP-0014722-002) was 95% and the remaining activity at 10 µM ([9]; batch_name=ASAP-0014722-002) was 93%. It also gave a remaining activity at 10 µM ([10]; batch_name=ASAP-0014722-002) of 89% and a remaining activity at 10 µM ([11]; batch_name=ASAP-0014722-002) of 98%.
Compound `COc1ccc([C@H](Cc2nnn[nH]2)NC(=O)c2ncnc3[nH]ccc23)cc1` [ASAP-0015381] has a remaining activity at 10 µM ([1]; batch_name=ASAP-0015381-001) of 103%, a remaining activity at 10 µM ([2]; batch_name=ASAP-0015381-001) of 103% and a remaining activity at 10 µM ([3]; batch_name=ASAP-0015381-001) of 88%. It also gave a remaining activity at 10 µM ([4]; batch_name=ASAP-0015381-001) of 99%, a remaining activity at 10 µM ([5]; batch_name=ASAP-0015381-001) of 99% and a remaining activity at 10 µM ([6]; batch_name=ASAP-0015381-001) of 100%. It also gave a remaining activity at 10 µM ([7]; batch_name=ASAP-0015381-001) of 113%, a remaining activity at 10 µM ([8]; batch_name=ASAP-0015381-001) of 99% and a remaining activity at 10 µM ([9]; batch_name=ASAP-0015381-001) of 90%. For the same compound, the remaining activity at 10 µM ([10]; batch_name=ASAP-0015381-001) was 100% and the remaining activity at 10 µM ([11]; batch_name=ASAP-0015381-001) was 102%.
